Results: article PMC10114980, “Triple targeting of mutant EGFR^L858R/T790M, COX-2, and 15-LOX: design and synthesis of novel quinazolinone tethered phenyl urea derivatives for anti-inflammatory and anticancer evaluation” (Journal of Enzyme Inhibition and Medicinal Chemistry, 2023)

Tests used:
CAKI-1 = assay: NCI single dose screen, CAKI-1; type: cell-based; conditions: Homo sapiens; CAKI-1, renal cancer; single dose 10^−5 M; read-out: growth inhibition percentage
Experimental: (§1) Screening of the anticancer activity of the newly synthesised compounds (6a, 6c, 6d, 6e, 6j, 6l, 6m, 6n, 6o, and 6p) was performed by the US National Cancer Institute (NCI) using 60 different human tumour cell lines in accordance with standard procedures formerly reported.
(§2) In vitro anticancer screening was carried out for the selected compounds at a single dose (10^−5 M) against 60 different human tumour cell lines of nine different cancer cell types: leukaemia, lung, colon, CNS, melanoma, ovarian, renal, prostate, and breast cancers.

DU-145 = assay: NCI single dose screen, DU-145; type: cell-based; conditions: Homo sapiens; DU-145, prostate cancer; single dose 10^−5 M; read-out: growth inhibition percentage
Experimental: as §1, §2

SK-MEL-2 = assay: NCI single dose screen, SK-MEL-2; type: cell-based; conditions: Homo sapiens; SK-MEL-2, melanoma; single dose 10^−5 M; read-out: growth inhibition percentage
Experimental: as §1, §2

NCI-H226 = assay: NCI single dose screen, NCI-H226; type: cell-based; conditions: Homo sapiens; NCI-H226, non-small cell lung cancer; single dose 10^−5 M; read-out: growth inhibition percentage
Experimental: as §1, §2

NCI-H460 = assay: NCI single dose screen, NCI-H460; type: cell-based; conditions: Homo sapiens; NCI-H460, non-small cell lung cancer; single dose 10^−5 M; read-out: growth inhibition percentage
Experimental: as §1, §2

[1] = system: LPS-induced NO production in RAW 264.7 cells; assay: NO production in LPS-activated RAW 264.7 macrophage cells (DAF-FM diacetate); type: cell-based; conditions: Mus musculus, RAW264.7; LPS-activated RAW 264.7 cells; mean ± SEM, three replicates
Experimental: TNF-α and IL-6 production were detected in RAW 264.7 macrophage cell culture supernatants following the induction of inflammation by LPS. Moreover, the probes of oxidative species 2,7-dichlorofluorescein diacetate (DCFH-DA) (Molecular Probes) and NO, 4-amino-5-methylamino-2,7-difluorofluorescein diacetate (DAF-FM diacetate) (Molecular Probes) were used to investigate the antioxidant and NO production inhibitory potential of the test compounds. Briefly, RAW 264.7 cells were cultured in black 96 well plates (200 000 cells/mL, 100 µl/well) for 24 h followed by the incubation with the individual test compounds or the reference drugs at different concentrations (12.5, 25, 50, and 100 µM) for 2 h at 37 °C. LPS was then added at a final concentration of 1 µg/mL for an additional 18 h. The cell culture supernatant was collected from cells treated with the different compounds at 25 µM to measure TNF-α and IL-6 levels (1:10 dilution) using DuoSet ELISA kits (R&D Systems, Minneapolis, MN) following the manufacturer’s instructions. Then, the plates were washed to perform ROS and NO detection assays as detailed in our previous studies[16]^,[27].

TK-10 = assay: NCI single dose screen, TK-10; type: cell-based; conditions: Homo sapiens; TK-10, renal cancer; single dose 10^−5 M; read-out: growth inhibition percentage
Experimental: as §1, §2

SF-295 = assay: NCI single dose screen, SF-295; type: cell-based; conditions: Homo sapiens; SF-295, CNS cancer; single dose 10^−5 M; read-out: growth inhibition percentage
Experimental: as §1, §2

NCI/ADR-RES = assay: NCI single dose screen, NCI/ADR-RES; type: cell-based; conditions: Homo sapiens, ovarian cancer, single dose 10^−5 M, read-out: growth inhibition percentage
Experimental: as §1, §2

SF-539 = assay: NCI single dose screen, SF-539; type: cell-based; conditions: Homo sapiens, read-out: growth inhibition percentage
Experimental: as §1, §2

HOP-62 = assay: NCI single dose screen, HOP-62; type: cell-based; conditions: Homo sapiens; HOP-62, non-small cell lung cancer; single dose 10^−5 M; read-out: growth inhibition percentage
Experimental: as §1, §2

SN12C = assay: NCI single dose screen, SN12C; type: cell-based; conditions: Homo sapiens, renal cancer, single dose 10^−5 M, read-out: growth inhibition percentage
Experimental: as §1, §2

OVCAR-4 = assay: NCI single dose screen, OVCAR-4; type: cell-based; conditions: Homo sapiens; OVCAR-4, ovarian cancer; single dose 10^−5 M; read-out: growth inhibition percentage
Experimental: as §1, §2

HOP-92 = assay: NCI single dose screen, HOP-92; type: cell-based; conditions: Homo sapiens; HOP-92, non-small cell lung cancer; single dose 10^−5 M; read-out: growth inhibition percentage
Experimental: as §1, §2

K-562 = assay: NCI single dose screen, K-562; type: cell-based; conditions: Homo sapiens, K562; K-562, leukaemia; single dose 10^−5 M; read-out: growth inhibition percentage
Experimental: as §1, §2

soybean 15-LOX = biological target: T1, soybean 15-LOX (Glycine max, UniProt P08170); assay: 15-LOX inhibitor screening assay (Cayman); type: biochemical; conditions: mean ± SEM, n = 3 replicates
T1 sequence (P08170 1-839): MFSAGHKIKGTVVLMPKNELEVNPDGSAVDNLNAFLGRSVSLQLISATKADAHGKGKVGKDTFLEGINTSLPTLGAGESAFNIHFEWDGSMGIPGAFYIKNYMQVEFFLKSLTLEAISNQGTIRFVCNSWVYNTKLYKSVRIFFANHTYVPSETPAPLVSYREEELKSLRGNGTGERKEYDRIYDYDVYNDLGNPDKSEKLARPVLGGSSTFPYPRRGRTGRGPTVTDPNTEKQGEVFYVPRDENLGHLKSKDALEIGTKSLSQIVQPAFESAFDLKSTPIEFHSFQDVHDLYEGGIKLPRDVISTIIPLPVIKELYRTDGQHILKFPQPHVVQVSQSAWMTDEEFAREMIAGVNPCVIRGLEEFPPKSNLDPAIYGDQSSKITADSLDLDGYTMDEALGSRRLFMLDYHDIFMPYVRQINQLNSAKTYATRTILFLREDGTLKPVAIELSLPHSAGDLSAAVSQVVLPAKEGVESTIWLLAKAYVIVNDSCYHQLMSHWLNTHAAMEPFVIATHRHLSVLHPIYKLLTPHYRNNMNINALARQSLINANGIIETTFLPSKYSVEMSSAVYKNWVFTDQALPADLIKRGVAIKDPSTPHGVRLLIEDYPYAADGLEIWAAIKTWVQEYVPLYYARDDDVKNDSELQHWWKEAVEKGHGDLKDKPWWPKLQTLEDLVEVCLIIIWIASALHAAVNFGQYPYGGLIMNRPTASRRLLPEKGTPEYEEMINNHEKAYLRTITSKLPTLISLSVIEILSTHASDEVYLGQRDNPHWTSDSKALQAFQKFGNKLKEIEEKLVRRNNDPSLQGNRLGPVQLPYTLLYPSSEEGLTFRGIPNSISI

T-47D = assay: NCI single dose screen, T-47D; type: cell-based; conditions: Homo sapiens, T47D, breast cancer, single dose 10^−5 M, read-out: growth inhibition percentage
Experimental: as §1, §2

UO-31 = assay: NCI single dose screen, UO-31; type: cell-based; conditions: Homo sapiens; UO-31, renal cancer; single dose 10^−5 M; read-out: growth inhibition percentage
Experimental: as §1, §2

With `CN1c2ccccc2C(=O)N(NC(=O)Nc2ccc(F)cc2)C1c1ccc(F)cc1` (stereo not drawn) [Compound 6n, 1-(4-Fluorophenyl)-3-(2–(4-fluorophenyl)-1-methyl-4-oxo-1,4-dihydroquinazolin-3(2H)-yl)urea] the inhibition at 10 µM (CAKI-1) was 25.1%, the inhibition at 10 µM (DU-145) was < 10% and the inhibition at 10 µM (SK-MEL-2) was 12.5%. For the same compound, the inhibition at 10 µM (NCI-H226) was 21%, the inhibition at 10 µM (NCI-H460) was < 10% and the IC50 [1] was 19800 ± 710 nM. For the same compound, the inhibition at 10 µM (TK-10) was < 10%, the inhibition at 10 µM (SF-295) was < 10% and the inhibition at 10 µM (NCI/ADR-RES) was 23.2%. The inhibition at 10 µM (SF-539) was 10.1%, the inhibition at 10 µM (HOP-62) was 13.3% and the inhibition at 10 µM (SN12C) was < 10%. The inhibition at 10 µM (OVCAR-4) was 29.7%, the inhibition at 10 µM (HOP-92) was < 10% and the inhibition at 10 µM (K-562) was 22.1%. It also gave an IC50 (soybean 15-LOX) of 2000 ± 260 nM, an inhibition at 10 µM (T-47D) of 11.7% and an inhibition at 10 µM (UO-31) of 57.1%.

In the case of `COc1ccc(C2N(NC(=O)Nc3ccc(F)cc3)C(=O)c3ccccc3N2C)cc1` (stereo not drawn) [Compound 6p, 1-(4-Fluorophenyl)-3-(2–(4-methoxyphenyl)-1-methyl-4-oxo-1,4-dihydroquinazolin-3(2H)-yl)urea], the inhibition at 10 µM (CAKI-1) is reported as < 10%, the inhibition at 10 µM (DU-145) is reported as < 10% and the inhibition at 10 µM (SK-MEL-2) is reported as < 10%. For the same compound, the inhibition at 10 µM (NCI-H226) was < 10%, the inhibition at 10 µM (NCI-H460) was < 10% and the IC50 [1] was 10840 ± 50 nM. For the same compound, the inhibition at 10 µM (TK-10) was < 10%, the inhibition at 10 µM (SF-295) was < 10% and the inhibition at 10 µM (NCI/ADR-RES) was < 10%. The inhibition at 10 µM (SF-539) was < 10%, the inhibition at 10 µM (HOP-62) was < 10% and the inhibition at 10 µM (SN12C) was < 10%. For the same compound, the inhibition at 10 µM (OVCAR-4) was < 10%, the inhibition at 10 µM (HOP-92) was < 10% and the inhibition at 10 µM (K-562) was < 10%. For the same compound, the IC50 (soybean 15-LOX) was 3870 ± 2100 nM, the inhibition at 10 µM (T-47D) was < 10% and the inhibition at 10 µM (UO-31) was 42.6%.

In the case of `CC1N(NC(=O)Nc2ccc(F)cc2)C(=O)c2ccccc2N1C` (stereo not drawn) [Compound 6l, 1–(1,2-Dimethyl-4-oxo-1,4-dihydroquinazolin-3(2H)-yl)-3-(4-fluorophenyl)urea], the inhibition at 10 µM (CAKI-1) is reported as < 10%, the inhibition at 10 µM (DU-145) is reported as < 10% and the inhibition at 10 µM (SK-MEL-2) is reported as < 10%. For the same compound, the inhibition at 10 µM (NCI-H226) was < 10%, the inhibition at 10 µM (NCI-H460) was < 10% and the IC50 [1] was 5240 ± 500 nM. For the same compound, the inhibition at 10 µM (TK-10) was 15.4%, the inhibition at 10 µM (SF-295) was < 10% and the inhibition at 10 µM (NCI/ADR-RES) was < 10%. For the same compound, the inhibition at 10 µM (SF-539) was < 10%, the inhibition at 10 µM (HOP-62) was < 10% and the inhibition at 10 µM (SN12C) was < 10%. For the same compound, the inhibition at 10 µM (OVCAR-4) was < 10%, the inhibition at 10 µM (HOP-92) was < 10% and the inhibition at 10 µM (K-562) was < 10%. For the same compound, the IC50 (soybean 15-LOX) was 1580 ± 280 nM, the inhibition at 10 µM (T-47D) was < 10% and the inhibition at 10 µM (UO-31) was < 10%.

In the case of `CN1c2ccccc2C(=O)N(NC(=O)Nc2ccc(F)cc2)C1c1ccc([N+](=O)[O-])cc1` (stereo not drawn) [Compound 6o, 1-(4-Fluorophenyl)-3–(1-methyl-2-(4-nitrophenyl)-4-oxo-1,4-dihydroquinazolin-3(2H)-yl)urea], the inhibition at 10 µM (CAKI-1) is reported as 18.4%, the inhibition at 10 µM (DU-145) is reported as < 10% and the inhibition at 10 µM (SK-MEL-2) is reported as < 10%. The inhibition at 10 µM (NCI-H226) was < 10%, the inhibition at 10 µM (NCI-H460) was < 10% and the IC50 [1] was 1970 ± 1450 nM. For the same compound, the inhibition at 10 µM (TK-10) was < 10%, the inhibition at 10 µM (SF-295) was < 10% and the inhibition at 10 µM (NCI/ADR-RES) was < 10%. The inhibition at 10 µM (SF-539) was < 10%, the inhibition at 10 µM (HOP-62) was < 10% and the inhibition at 10 µM (SN12C) was < 10%. The inhibition at 10 µM (OVCAR-4) was 16.4%, the inhibition at 10 µM (HOP-92) was < 10% and the inhibition at 10 µM (K-562) was 17.5%. For the same compound, the IC50 (soybean 15-LOX) was 1420 ± 230 nM, the inhibition at 10 µM (T-47D) was < 10% and the inhibition at 10 µM (UO-31) was 41.3%.
